{"source": "PubChem BioAssay (NCI)", "system": "RXF-631 renal", "experiment": "NCI anticancer screen, dose series, 48 h", "note": "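Grown in 96-well plates, cells were treated for 48 hours with each compound at five concentrations. Insufficient inhibition: endpoint recorded as highest concentration tested. TGI marks complete inhibition of growth.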"}
{"compound": "CN1CCN(c2cc(-c3cc4ccccc4o3)oc(=O)c2C#N)CC1", "values": [{"measurement": "TGI", "value": "> 100", "unit": "µM"}]}
